Results on 18 compounds are retold here after patent US8106055B2, “Substituted amide compounds” (Gruenenthal GmbH, priority 2007, dated 2012).

For one assay, the target named is T1, human μ opiate receptor (Homo sapiens, UniProt P35372).
T1 construct: purchased PerkinElmer Life Sciences, Zaventem, Belgium RB-HOM; host or cells: CHO-K1 cells (membrane preparation)
Put plainly: Affinity for the human μ opiate receptor ([3H]-naloxone displacement, CHO-K1 receptor membrane preparation, SPA). Type of assay: binding. The following applies: test concentration of 1 μM; read-out: μ (binding on the μ opioid receptor, % inhibition). In short, it runs like this:
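Scintillation proximity binding on human μ receptor membranes from CHO-K1 cells used 1 nmol/l [3H]-naloxone over 90 min at room temperature in 50 mmol/l Tris-HCl, 0.06% BSA. Percent inhibition was recorded at 1 μM.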

In assay [1] the target is T2, serotonin (5-HT) reuptake (Rattus norvegicus, UniProt P31652).
T2 construct: synaptosomes are freshly isolated from areas of the rat brain; from tissue; host or cells: rat brain synaptosomes (P2 fraction)
Put plainly: Inhibition of serotonin (5HT) reuptake in synaptosomes from rat brain. Type of assay: biochemical. The following applies: test concentration of 10 μM; read-out: 5-HT (inhibition of reuptake of serotonin, % inhibition). In short, it runs like this: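 Freshly isolated rat brain synaptosomes (P2 fraction) used for 5-HT reuptake. Test compound at 10 μM, activity given as % inhibition.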

T2 sequence (P31652 whole entry): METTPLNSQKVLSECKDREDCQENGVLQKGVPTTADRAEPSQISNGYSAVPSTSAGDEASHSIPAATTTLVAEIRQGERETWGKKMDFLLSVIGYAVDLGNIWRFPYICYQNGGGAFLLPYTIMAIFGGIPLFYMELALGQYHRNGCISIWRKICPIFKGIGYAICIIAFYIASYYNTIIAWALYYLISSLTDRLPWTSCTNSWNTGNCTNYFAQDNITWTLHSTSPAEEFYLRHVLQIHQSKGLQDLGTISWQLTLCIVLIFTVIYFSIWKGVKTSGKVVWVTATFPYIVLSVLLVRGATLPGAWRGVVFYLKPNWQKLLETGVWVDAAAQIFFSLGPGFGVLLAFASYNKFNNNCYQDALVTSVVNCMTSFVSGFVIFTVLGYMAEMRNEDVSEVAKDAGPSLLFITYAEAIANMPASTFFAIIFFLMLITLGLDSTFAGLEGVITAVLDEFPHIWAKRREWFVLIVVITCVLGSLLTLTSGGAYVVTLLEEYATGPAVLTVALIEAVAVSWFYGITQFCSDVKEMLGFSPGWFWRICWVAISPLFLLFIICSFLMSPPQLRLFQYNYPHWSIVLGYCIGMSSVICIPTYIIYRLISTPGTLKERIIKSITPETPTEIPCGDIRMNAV
T1 sequence (P35372 whole entry): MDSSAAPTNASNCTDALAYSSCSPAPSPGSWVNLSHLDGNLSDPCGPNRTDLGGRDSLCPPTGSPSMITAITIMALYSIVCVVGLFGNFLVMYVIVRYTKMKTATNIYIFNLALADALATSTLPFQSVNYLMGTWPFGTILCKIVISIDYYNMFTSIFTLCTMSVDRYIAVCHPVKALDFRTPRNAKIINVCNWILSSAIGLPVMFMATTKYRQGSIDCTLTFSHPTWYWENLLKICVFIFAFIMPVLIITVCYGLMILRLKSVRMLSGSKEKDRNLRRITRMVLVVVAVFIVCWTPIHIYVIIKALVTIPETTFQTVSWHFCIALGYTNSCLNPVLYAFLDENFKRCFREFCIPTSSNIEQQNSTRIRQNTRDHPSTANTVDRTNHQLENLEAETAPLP

On to `COc1cc(C)c(S(=O)(=O)N2CCC(OCC(=O)NC3CCC(C(c4cccs4)N(C)C)CC3)CC2)c(C)c1C` (stereo not drawn) [Example 1, N-(4-((dimethylamino)(thiophen-2-yl)methyl)cyclohexyl)-2-(1-(4-methoxy-2,3,6-trimethylphenylsulfonyl)piperidin-4-yloxy)acetamide], for which the inhibition (in general, the drop in the measured response relative to a control, in per cent) at 1 µM at human μ opiate receptor was 100%. In addition, in assay [1], the inhibition at 10 µM is 94%.
Turning to `Cc1ccc(S(=O)(=O)N(C)CCOCC(=O)NCC2CCC(C(c3cccs3)N(C)C)CC2)cc1` (stereo not drawn) [Example 4, N-((4-((dimethylamino)(thiophen-2-yl)methyl)cyclohexyl)methyl)-2-(2-(N,4-dimethylphenylsulfonamido)ethoxy)acetamide], the inhibition at 1 µM on human μ opiate receptor was determined as 99%. The inhibition at 10 µM in assay [1] is 92%.
The matching figures for `COc1cc(C)c(S(=O)(=O)N2CCC(CCOCC(=O)NC3CCC(C(c4cccs4)N(C)C)CC3)CC2)c(C)c1C` (stereo not drawn) [Example 5, N-(4-((dimethylamino)(thiophen-2-yl)methyl)cyclohexyl)-2-(2-(1-(4-methoxy-2,3,6-trimethylphenylsulfonyl)piperidin-4-yl)ethoxy)acetamide]: 99% and 87%.
For `CN(C)C(c1ccccc1)C1CCC(NC(=O)COCCN(C)S(=O)(=O)c2c(Cl)cc(Cl)cc2Cl)CC1` (stereo not drawn) [Example 34, N-(4-((dimethylamino)(phenyl)methyl)cyclohexyl)-2-(2-(2,4,6-trichloro-N-methylphenylsulfonamido)ethoxy)acetamide], the inhibition at 1 µM on human μ opiate receptor was determined as 96%. The inhibition at 10 µM in assay [1] was found to be 79%.
The matching figures for `COc1cc(C)c(S(=O)(=O)N(C)CCOCC(=O)NCC2CCC(C(c3cccs3)N(C)C)CC2)c(C)c1C` (stereo not drawn) [Example 35, N-((4-((dimethylamino)(thiophen-2-yl)methyl)cyclohexyl)methyl)-2-(2-(4-methoxy-N,2,3,6-tetramethylphenylsulfonamido)ethoxy)acetamide]: 96% and 84%.
On the same counts, the results for `CN(C)C(c1cccs1)C1CCC(CNC(=O)COC2CCN(S(=O)(=O)c3ccccc3)C2)CC1` (stereo not drawn) [Example 36, N-((4-((dimethylamino)(thiophen-2-yl)methyl)cyclohexyl)methyl)-2-(1-(phenylsulfonyl)pyrrolidin-3-yloxy)acetamide] are 96% and 102%.
On the same counts, the results for `CN(C)C(c1cccs1)C1CCC(CCNC(=O)COCCN(C)S(=O)(=O)c2ccc(Cl)cc2)CC1` (stereo not drawn) [Example 37, 2-(2-(4-chloro-N-methylphenylsulfonamido)ethoxy)-N-(2-(4-((dimethylamino)(thiophen-2-yl)methyl)cyclohexyl)ethyl)acetamide] are 96% and 90%.
In the case of `COc1ccc(S(=O)(=O)N2Cc3ccccc3CC2COCC(=O)NC2CCC(C(c3ccccc3)N(C)C)CC2)cc1` (stereo not drawn) [Example 38, N-(4-((dimethylamino)(phenyl)methyl)cyclohexyl)-2-((2-(4-methoxyphenylsulfonyl)-1,2,3,4-tetrahydroisoquinolin-3-yl)methoxy)acetamide], the inhibition at 1 µM on human μ opiate receptor came out at 96%. The inhibition at 10 µM in assay [1] amounted to 61%.
On the same counts, the results for `CN(C)C(c1ccccc1)C1CCC(NC(=O)COC2CCCCC2N(C)S(=O)(=O)c2ccc(Cl)c(Cl)c2)CC1` (stereo not drawn) [Example 39, 2-(2-(3,4-dichloro-N-methylphenylsulfonamido)cyclohexyloxy)-N-(4-((dimethylamino)(phenyl)methyl)cyclohexyl)acetamide] are 96% and 91%.
The matching figures for `CN(C)C(c1cccc(F)c1)C1CCC(CCNC(=O)COCCN(C)S(=O)(=O)c2c(Cl)cccc2Cl)CC1` (stereo not drawn) [Example 41, 2-(2-(2,6-dichloro-N-methylphenylsulfonamido)ethoxy)-N-(2-(4-((dimethylamino)(3-fluorophenyl)methyl)cyclohexyl)ethyl)acetamide]: 96% and 79%.
On the same counts, the results for `CN(C)C(c1cccs1)C1CCC(NC(=O)COC2CCCN(S(=O)(=O)c3ccccc3)C2)CC1` (stereo not drawn) [Example 42, N-(4-((dimethylamino)(thiophen-2-yl)methyl)cyclohexyl)-2-(1-(phenylsulfonyl)piperidin-3-yloxy)acetamide] are 96% and 91%.
For the compound `COc1cc(C)c(S(=O)(=O)N2CCC(OCC(=O)NC3CCC(C(c4cccs4)N(C)C)CC3)C2)c(C)c1C` (stereo not drawn) [Example 43, N-(4-((dimethylamino)(thiophen-2-yl)methyl)cyclohexyl)-2-(1-(4-methoxy-2,3,6-trimethylphenylsulfonyl)pyrrolidin-3-yloxy)acetamide], the inhibition at 1 µM on human μ opiate receptor stood at 96%. In addition, the inhibition at 10 µM in assay [1] amounted to 90%.
The matching figures for `COc1cc(C)c(S(=O)(=O)N2CCC(OCC(=O)NCC3CCC(C(c4ccccc4)N(C)C)CC3)C2)c(C)c1C` (stereo not drawn) [Example 44, N-((4-((dimethylamino)(phenyl)methyl)cyclohexyl)methyl)-2-(1-(4-methoxy-2,3,6-trimethylphenylsulfonyl)pyrrolidin-3-yloxy)acetamide]: 96% and 94%.
The matching figures for `COc1ccc(S(=O)(=O)N2CCCCC2COCC(=O)NCC2CCC(C(c3cccs3)N(C)C)CC2)cc1` (stereo not drawn) [Example 45, N-((4-((dimethylamino)(thiophen-2-yl)methyl)cyclohexyl)methyl)-2-((1-(4-methoxyphenylsulfonyl)piperidin-2-yl)methoxy)acetamide]: 96% and 91%.
On the same counts, the results for `COc1ccc(S(=O)(=O)N2CCCCC2CCOCC(=O)NCCC2CCC(C(c3cccs3)N(C)C)CC2)cc1` (stereo not drawn) [Example 46, N-(2-(4-((dimethylamino)(thiophen-2-yl)methyl)cyclohexyl)ethyl)-2-(2-(1-(4-methoxyphenylsulfonyl)piperidin-2-yl)ethoxy)acetamide] are 96% and 96%.
Regarding `COc1ccc(S(=O)(=O)N2Cc3ccccc3CC2COCC(=O)NC2CCC(C(c3cccs3)N(C)C)CC2)cc1` (stereo not drawn) [Example 47, N-(4-((dimethylamino)(thiophen-2-yl)methyl)cyclohexyl)-2-((2-(4-methoxyphenylsulfonyl)-1,2,3,4-tetrahydroisoquinolin-3-yl)methoxy)acetamide], the inhibition at 1 µM on human μ opiate receptor stood at 96%. The inhibition at 10 µM in assay [1] is 98%.
The matching figures for `COc1ccc(S(=O)(=O)N2Cc3ccccc3CC2COCC(=O)NCCC2CCC(C(c3cccs3)N(C)C)CC2)cc1` (stereo not drawn) [Example 48, N-(2-(4-((dimethylamino)(thiophen-2-yl)methyl)cyclohexyl)ethyl)-2-((2-(4-methoxyphenylsulfonyl)-1,2,3,4-tetrahydroisoquinolin-3-yl)methoxy)acetamide]: 96% and 101%.
For the compound `COc1ccc(S(=O)(=O)N2CCCCC2COCC(=O)NCC2CCC(C(c3cccs3)N(C)C)CC2)c(OC)c1` (stereo not drawn) [Example 49, 2-((1-(2,4-dimethoxyphenylsulfonyl)piperidin-2-yl)methoxy)-N-((4-((dimethylamino)(thiophen-2-yl)methyl)cyclohexyl)methyl)acetamide], the inhibition at 1 µM at human μ opiate receptor was determined as 96%. Besides, in assay [1], the inhibition at 10 µM amounted to 86%.
